Holding throughout (assay type): functional
Assay [1] concerns Plutella xylostella. As to the kind of experiment: Insecticidal activity against Plutella xylostella (diamondback moth) CG1 using leaf dip immersion method of compound application.
Assay [2] has as its system Plutella xylostella. As to the kind of experiment: Insecticidal activity against Plutella xylostella (diamondback moth) CG1 using topical method of compound application.
For assay [3], the system named is Plutella xylostella. As to the kind of experiment: Insecticidal activity against Plutella xylostella (diamondback moth) Brazilian field isolates.
Assay [4] deals with Plutella xylostella. As to the kind of experiment: Insecticidal activity against Plutella xylostella (diamondback moth) CG1 using potter tower method of compound application.

With `CNC(=O)c1cc(Cl)cc(C)c1NC(=O)c1cc(Br)nn1-c1ncccc1Cl` [CHLORANTRANILIPROLE], the LC50 came out at 0.02 mgAi/L in the assay on Plutella xylostella [1], 1.422 mgAi/L with Plutella xylostella [2], 0.025 mgAi/L with Plutella xylostella [3] and 0.018 mgAi/L with Plutella xylostella [4]. Besides, the LC95 with Plutella xylostella [1] amounted to 0.046 mgAi/L; in the assay with Plutella xylostella [2] it was 35.13 mgAi/L; in the assay on Plutella xylostella [4], 0.073 mgAi/L. Further, the LC99 with Plutella xylostella [1] was determined as 0.066 mgAi/L; in the assay with Plutella xylostella [2] it was 132.65 mgAi/L; in the assay with Plutella xylostella [3], 0.212 mgAi/L; in the assay with Plutella xylostella [4] it was 0.13 mgAi/L.

The values are drawn from ChEMBL document CHEMBL3045080, “Baseline susceptibility to chlorantraniliprole of Brazilian populations of Plutella xylostella” (2012).
